Assay [1] deals with metalloelastase (MMP-12) (Homo sapiens, UniProt P39900). The assay is described as follows: MMP-12 enzyme inhibition assay, coumarin-labelled peptide substrate McaPLGLDpaAR. The assay is classed as biochemical. Here is the method:
(§1) Compounds of the invention were tested to assess their activities as inhibitors of MMP-1, MMP-2, MMP-9, MMP-14 and MMP-12.
(§2) Stock solutions were made up as follows: Assay Butter: 100 mM Tris-HCl pH 7.6 containing 100 mM NaCl, 10 mM CaCl2, and 0.05% Brij 35.
(§3) Substrate: 0.4 mM McaPLGLDpaAR (from Bachem) (0.437 mg/ml) stock solution in 100% DMSO (stored at −20° C.). Dilute to 8 μM in assay butter.
(§4) Test Compounds were prepared initially as 10 mM compound solution in 100% DMSO, diluted to 1 mM in 100% DMSO, then serially diluted 3-fold in 100% DMSO across columns 1-10 of a 96-well microtitre plate Assay concentration range, 100 μM (column 1) to 5.1 nM (column 10).
(§5) The assay was performed in a total volume of 100 μL per well in 96-well microtitre plates. Activated enzyme (20 μL) was added to the wells followed by 20 μL of assay butter. Appropriate concentrations of test compounds dissolved in 10 μL of DMSO were then added followed by 50 μL of McaPLGLDpaAR (8 μM, prepared by dilution of DMSO stock in assay butter). For each as say ten concentrations of test compound were examined in duplicate. Control wells lack either enzyme or test compound. The reactions were incubated at 37° C. for 2 hours. The fluorescence at 405 nm was measured immediately with an SLT Fluostar fluorometer (SLT Labinstruments GmbH, Grödig, Austria) using 320 nm excitation, without stopping the reaction.
(§6) The effect of the test compound was determined from the dose response curve generated by the 10 duplicate concentrations of inhibitor. The IC50 (the concentration of compound required to give a 50% decrease in enzyme activity) was obtained by fitting data to the equation, Y=a+((b−a)/(1+(c/X)^d)). (Y=inhibition achieved for a particular dose; X=the dose in nM; a=minimum y or zero % inhibition; b=maximum y or 100% inhibition; c=is the IC50; d=is the slope). The result was rounded to one significant figure.
Compounds of the invention were tested for inhibitory activity against metalloelastase (MMP-12) in an assay using a coumarin-labelled peptide substrate, (7-methoxycoumarin-4-yl)acetyl-Pro-Leu-Gly-Leu-(3-[2,4dinitrophenyl]-L-2,3-diaminopropionyl)-Ala-Arg-NH2 (McaPLGLDpaAR) (Knight et al, 1992, above). The protocol for this assay was as described for the MMP-9 assay above.

Assay [2] deals with IL-2-induced peritoneal recruitment of lymphocytes. The assay is described as follows: IL-2-induced peritoneal recruitment of lymphocytes. It counts as in vivo, C3H/HEN mice. As to conditions: 10 mg/kg, subcutaneous, 15 min prior to IL-2; cells collected 24 h after IL-2; mice. Here is the method: Administration of IL-2 intraperitoneally causes migration of lymphocytes into the intraperitoneal cavity. This is a model for the cellular migration that occurs during inflammation.
C3H/HEN mice (Elevage Janvier, France) were intraperitoneally injected with IL-2 (Serono Pharmaceutical Research Institute, 20 μg/kg, in saline).
Compounds of the invention were suspended in 0.5% carboxymethylcellulose (CMC)/0.25% tween-20 and were administered by s.c. or p.o. route (10 ml/kg) 15 min prior to administration of IL-2.
Twenty-four hours after administration of IL-2, peritoneal white blood cells were collected by 3 successive lavages of the peritoneal cavity with 5 ml phosphate buffered saline (PBS)-1 mM EDTA (+4° C.). The suspension was centrifuged (1700 g×10 min at +4° C.). The resulting pellet was suspended in 1 ml PBS-1 mM EDTA.
Lymphocytes were identified and counted using a Beckman/Coulter counter.
The animals were divided into 6 groups (6 mice each group):
Group 1: (baseline) received 0.5% CMC/0.25% tween-20 (vehicle of compound of the invention) and saline (vehicle of IL-2);
Group 2: (control IL-2) received 0.5% CMC/0.25% tween-20 and injection of IL-2;
Group 3: Experimental group (Compound of the invention Dose 1) received a compound of the invention and injection of IL-2; […]
Inhibition of lymphocyte recruitment was calculated as follows: […]

The target in assay [3] is T1, MMP-2 (Homo sapiens, UniProt P08253).
T1 sequence (P08253 110-660): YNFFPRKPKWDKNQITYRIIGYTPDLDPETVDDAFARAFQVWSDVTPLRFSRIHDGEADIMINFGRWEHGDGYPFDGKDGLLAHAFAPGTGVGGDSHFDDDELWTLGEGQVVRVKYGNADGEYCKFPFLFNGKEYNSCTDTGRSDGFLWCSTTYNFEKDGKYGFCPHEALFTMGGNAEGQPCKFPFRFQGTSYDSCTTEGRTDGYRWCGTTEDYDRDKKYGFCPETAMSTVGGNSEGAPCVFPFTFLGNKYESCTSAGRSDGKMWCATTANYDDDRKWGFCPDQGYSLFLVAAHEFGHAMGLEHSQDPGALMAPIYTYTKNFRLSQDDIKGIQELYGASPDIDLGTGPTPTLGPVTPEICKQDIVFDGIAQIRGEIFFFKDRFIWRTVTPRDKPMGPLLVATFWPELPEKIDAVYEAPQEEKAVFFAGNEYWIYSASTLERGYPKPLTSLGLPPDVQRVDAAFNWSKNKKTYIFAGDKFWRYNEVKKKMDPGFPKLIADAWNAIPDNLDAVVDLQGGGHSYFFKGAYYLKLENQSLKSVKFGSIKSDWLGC
Kind of assay: MMP-2 enzyme inhibition assay, coumarin-labelled peptide substrate McaPLGLDpaAR. The assay is classed as biochemical. The method, then:
as §1, §2, §3, §4, §5, §6
Compounds of the invention were tested for inhibitory activity against collagenase (MMP-2) in an assay using a coumarin-labelled peptide substrate, (7-methoxycoumarin-4-yl)acetyl-Pro-Leu-Gly-Leu-(3-[2,4-dinitrophenyl]-L-2,3diaminopropionyl)-Ala-Arg-NH2 (Mca PLGLDpaAR) (Knight et al, 1992, above). The protocol for this assay was as described for the MMP-9 assay above.

Assay [4] concerns the target Recombinant human 92 kDa gelatinase (MMP-9) (Homo sapiens, UniProt P14780). The assay is described as follows: MMP-9 enzyme inhibition assay, coumarin-labeled peptide substrate McaPLGLDpaAR. It counts as biochemical. The method, then: as §1
Compounds of the invention were tested for inhibitory activity against 92 kDa gelatinase (MMP-9) in an assay using a coumarin-labeled peptide substrate, (7-methoxycoumarin-4-yl)acetyl-Pro-Leu-Gly-Leu-(3-[2,4-dinitrophenyl]-L-2,3diaminopropionyl)-Ala-Arg-NH2 (McaPLGLDpaAR) (Knight et al, FEBS Lett. 1992; 263-266).
as §2, §3
Enzyme: Recombinant human 92 kDa gelatinase (MMP-9; APMA (4-aminophenyl mercuric acetate)-activated if necessary) appropriately diluted in assay butter.
as §4, §5, §6

metalloelastase (MMP-12), sequence (P39900 106-470): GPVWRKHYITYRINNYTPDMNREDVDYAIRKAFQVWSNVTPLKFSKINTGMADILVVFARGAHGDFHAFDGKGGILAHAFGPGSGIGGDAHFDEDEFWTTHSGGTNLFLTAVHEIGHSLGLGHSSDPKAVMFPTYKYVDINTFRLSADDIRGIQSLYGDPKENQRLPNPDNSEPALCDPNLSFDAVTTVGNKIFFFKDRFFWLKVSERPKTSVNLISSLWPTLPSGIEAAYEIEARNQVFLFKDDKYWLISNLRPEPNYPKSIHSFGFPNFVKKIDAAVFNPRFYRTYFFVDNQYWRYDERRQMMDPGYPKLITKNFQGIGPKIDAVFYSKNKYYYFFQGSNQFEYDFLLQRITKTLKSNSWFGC
Recombinant human 92 kDa gelatinase (MMP-9), sequence (P14780 107-707 limits assumed): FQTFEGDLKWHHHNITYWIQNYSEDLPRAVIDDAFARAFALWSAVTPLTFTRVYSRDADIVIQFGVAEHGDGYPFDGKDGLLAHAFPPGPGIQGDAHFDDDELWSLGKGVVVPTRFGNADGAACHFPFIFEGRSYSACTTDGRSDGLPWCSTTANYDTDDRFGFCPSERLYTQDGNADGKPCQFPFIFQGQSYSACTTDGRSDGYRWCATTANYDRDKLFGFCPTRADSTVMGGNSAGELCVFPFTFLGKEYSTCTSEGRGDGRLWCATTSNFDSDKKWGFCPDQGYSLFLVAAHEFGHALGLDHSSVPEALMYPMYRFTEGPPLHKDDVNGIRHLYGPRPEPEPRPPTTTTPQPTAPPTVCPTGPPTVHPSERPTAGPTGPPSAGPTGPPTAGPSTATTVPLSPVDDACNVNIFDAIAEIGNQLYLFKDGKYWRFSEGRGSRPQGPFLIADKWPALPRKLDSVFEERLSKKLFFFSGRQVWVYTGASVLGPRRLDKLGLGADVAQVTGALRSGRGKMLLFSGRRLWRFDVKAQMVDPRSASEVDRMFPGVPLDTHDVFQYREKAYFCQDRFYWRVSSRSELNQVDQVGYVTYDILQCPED

Take `CS(=O)(=O)N1CC[C@H]2C[C@@H](C(=O)NO)N(S(=O)(=O)c3ccc(Oc4ccncc4)cc3)[C@H]2C1` (relative stereo) [Example 11, rel-(2S,3aS,7aR)—N-hydroxy-6-(methylsulfonyl)-1-{[4-(pyridin-4-yloxy)phenyl]sulfonyl}octahydro-1H-pyrrolo[2,3-c]pyridine-2-carboxamide]: the results for the IC50 in assay [1], in assay [3] and in assay [4] were 80 nM, 370 nM and 870 nM, respectively. Further, the “% inhibition of IL-2-induced peritoneal recruitment of lymphocytes” value in assay [2] turned out to be 38%.

Usually IC50 stands for the concentration needed to halve the response being measured.

The record behind these values is patent US7932389B2, “Octahydropyrrolo[2,3C]pyridine derivatives and pharmaceutical use thereof” (Merck Serono S.A., priority 2004, dated 2011).
